Assay results reported in patent US11124509B2, “Tri-substituted imidazoles for the inhibition of TGF beta and methods of treatment” (CLAVIUS PHARMACEUTICALS, LLC, priority 2017, dated 2021).
Counter-ions that a name gives are not always drawn. Like-named read-outs stand apart in the source and are kept apart here.

What was measured:
[1] = tested on: TGF-beta 1 stimulated SBE-b1a HEK 293T cells; assay: GeneBLAzer beta-lactamase reporter, TGF-beta 1 stimulated SBE-b1a HEK 293T cell-based assay (ThermoFisher SelectScreen); conditions: TGF-beta 1 0.03 nM, 5 hours, inhibitor 10,000 nM to 0.316 nM, sigmoidal dose response curve fit, read-out: Cells (SBE_HEK293T) IC50
Procedure: (§1) Exemplified compounds were confirmed to inhibit ALK5 activity in enzyme and cellular assays in the following assay systems conducted by ThermoFisher in Madison, Wis. according to their commercially available protocols.
ThermoFisher SelectScreen™ Cell-Based Pathway Profiling Service GeneBLAzer Beta-Lactamase (b1a) Reporter Technology—TGF-Beta 1 Stimulated SBE-b1a HEK 293T Cell-Based Assay
SBE-b1a HEK 293T cells were thawed and re-suspended in Assay Media (OPTI-MEM, 0.5% dialyzed FBS, 0.1 mM NEAA, 1 mM Sodium Pyruvate, 100 U/mL/100 μg/mL Pen/Strep) to a concentration of 625,000 cells/mL. 32 μL of cell suspension (20,000 cells) was added to each well of a 384-well Poly-D-Lysine assay plate. Cells in Assay Media were incubated for 16-24 hours in the plate at 37° C./5% CO2 in a humidified incubator. 4 μL of a 10× serial dilution of ALK5 inhibitors (10x=100,000-3.16 nM) was added to appropriate wells of the plate and pre-incubated at 37° C./5% CO2 in a humidified incubator with cells for 30 minutes. Final concentration of inhibitor ranged from 10,000 nM to 0.316 nM. 4 μL of 10× TGF-beta 1 (final concentration of 0.03 nM) was added to wells containing the inhibitors. The plate was incubated for 5 hours at 37° C./5% CO2 in a humidified incubator. 8 μL of 1 μM Substrate Loading Solution was added to each well and the plate was incubated for 2 hours at room temperature before being read on a fluorescence plate reader. Percent inhibition was determined compared to DMSO only control (maximal TGF-beta 1 stimulation) and sigmoidal dose response curve fit yielded IC50 values as indicated in Table 2.

[2] = molecular target: TGFBR1 (ALK5) (Homo sapiens (Human), UniProt P36897); assay: LanthaScreen Eu Kinase Binding Assay TGFBR1 (ALK5) (ThermoFisher SelectScreen); conditions: read-out: TβRI (ALK5) Binding IC50
Procedure: as §1
ThermoFisher SelectScreen™ Biochemical Kinase Profiling Service, LanthaScreen™Eu Kinase Binding Assay TGFBR1 (ALK5)
Exemplified compounds were screened in 1% DMSO (final concentration) by 3-fold serial dilutions from 10,000 nM to 0.316 nM to produce an IC50 or at single concentrations of 10,000, 1000 and 100 nM according to the following protocol. To low volume, white 384-well plates (Greiner Cat #784207) add 160 nL 100× compound in 100% DMSO, 3.84 uL kinase buffer (50 mM HEPES, pH 7.5, 0.01% BRIJ-35, 10 mM MgCl2, 1 mM EGTA), 8 uL 2× kinase/antibody mixture in kinase buffer (final ALK5 concentration of 5 nM; final Eu-anti-GST antibody concentration of 2 nM), 4 uL 4× Tracer #178 in kinase buffer (final concentration of 5 nM). Gently shake the plates for 30 seconds and incubate at room temperature for 1 hour before reading fluorescence on a plate reader. Percent inhibition was determined compared to DMSO only control (maximal ALK5 tracer binding) and sigmoidal dose response curve fit yielded IC50 values as indicated in Table 2.

[3] = 3-fold serial dilutions 10,000 nM to 0.316 nM, ALK5 5 nM, Tracer #178 5 nM, sigmoidal dose response curve fit
[4] = compounds marked with an asterisk: evaluated at three concentrations, IC50 depicted as less than the lowest concentration producing >50% inhibition

TGFBR1 (ALK5), sequence (P36897 34-503): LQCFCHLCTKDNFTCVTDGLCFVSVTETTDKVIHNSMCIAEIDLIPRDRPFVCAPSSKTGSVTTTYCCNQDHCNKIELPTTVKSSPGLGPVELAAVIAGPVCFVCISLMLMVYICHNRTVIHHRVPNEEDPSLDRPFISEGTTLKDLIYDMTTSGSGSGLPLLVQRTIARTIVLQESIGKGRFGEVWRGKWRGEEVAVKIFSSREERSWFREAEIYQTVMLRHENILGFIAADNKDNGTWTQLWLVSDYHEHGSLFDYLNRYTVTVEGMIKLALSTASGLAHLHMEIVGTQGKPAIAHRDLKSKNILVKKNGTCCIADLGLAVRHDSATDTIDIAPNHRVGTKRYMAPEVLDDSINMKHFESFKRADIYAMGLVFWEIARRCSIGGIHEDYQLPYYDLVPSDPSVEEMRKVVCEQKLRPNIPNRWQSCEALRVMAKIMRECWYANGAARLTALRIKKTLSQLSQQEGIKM

Compound | IC50 [2, 3] [nM] | IC50 [2, 4] [nM] | IC50 ([1]; Homo sapiens, HEK-293T) [nM] | IC50 [1] [nM]
CC(C)n1ccc(-c2nc(CNc3cc(F)cc(C#N)c3)[nH]c2-c2ccc3nccnc3c2)n1 [Compound 50] | – | – | 1070 | –
CC(C)n1ccc(-c2nc(CNc3cc(F)cc(F)c3)[nH]c2-c2ccc3ncnn3c2)n1 [Compound 36, N-((5-([1,2,4]triazolo[1,5-a]pyridin-6-yl)-4-(1-isopropyl-1H-pyrazol-3-yl)-1H-imidazol-2-yl)methyl)-3,5-difluoroaniline hydrochloride] | 103 | – | 507 | –
CC(C)n1ccc(-c2nc(CNc3cccc(C#N)c3)[nH]c2-c2ccc3nccnc3c2)n1 [Compound 41] | 33 | – | 77.5 | –
CC(C)n1ccc(-c2nc[nH]c2-c2ccc3nccnc3c2)n1 [Compound 53, 6-(4-(1-isopropyl-1H-pyrazol-3-yl)-1H-imidazol-5-yl)quinoxaline hydrochloride] | – | < 1000 | – | –
N#Cc1ccc(-c2nc(-c3ccn(C(F)F)n3)c(-c3ccc4ncsc4c3)[nH]2)cc1 [Compound 60] | 71.7 | – | – | –
CC(C)n1ccc(-c2nc(CNc3cc(F)cc(C(N)=O)c3)[nH]c2-c2ccc3nccnc3c2)n1 [Compound 58] | 78 | – | 3920 | –
Cn1ccc(-c2nc(CNc3ccc(F)cc3)[nH]c2-c2ccc3ncnn3c2)n1 [Compound 8, N-((5-([1,2,4]triazolo[1,5-a]pyridin-6-yl)-4-(1-methyl-1H-pyrazol-3-yl)-1H-imidazol-2-yl)methyl)-4-fluoroaniline hydrochloride] | 811 | – | > 10000 | –
Cn1ccc(-c2nc(-c3ccc(C(N)=O)cc3)[nH]c2-c2ccc3nccnc3c2)n1 [Compound 43] | – | < 100 | 485 | –
CC(C)n1ccc(-c2nc(CNc3cccc(C#N)c3)[nH]c2-c2ccc3ncnn3c2)n1 [Compound 28] | – | < 100 | 757 | –
CC(C)n1ccc(-c2nc(CNc3cccc(C#N)c3)[nH]c2-c2ccc3ncc(C(N)=O)n3n2)n1 [Compound 38] | – | < 100 | 3180 | –
CC(C)n1ccc(-c2nc(-c3ccc(C(N)=O)cc3)[nH]c2-c2ccc3nccnc3c2)n1 [Compound 59] | 889 | – | – | –
Cn1ccc(-c2nc(-c3ccc(C(N)=O)cc3)[nH]c2-c2ccc3c(c2)OCO3)n1 [Compound 67] | 50 | – | – | –
CC(C)n1ccc(-c2nc(CNc3cccc(F)c3)[nH]c2-c2ccc3ncccc3c2)n1 [Compound 26, 3-fluoro-N-((4-(1-isopropyl-1H-pyrazol-3-yl)-5-(quinolin-6-yl)-1H-imidazol-2-yl)methyl)aniline hydrochloride] | – | < 100 | – | –
CC(C)n1ccc(-c2nc(CNc3cccc(F)c3)[nH]c2-c2ccc3nccnc3c2)n1 [Compound 22, 3-fluoro-N-((4-(1-isopropyl-1H-pyrazol-3-yl)-5-(quinoxalin-6-yl)-1H-imidazol-2-yl)methyl)aniline hydrochloride] | – | < 100 | 1090 | –
CC(C)n1ccc(-c2nc(CNc3cc(F)cc(F)c3)[nH]c2-c2ccc3nccnc3c2)n1 [Compound 39] | – | – | 53.6 | –
CC(C)n1ccc(-c2nc(CNc3ccccc3F)[nH]c2-c2ccc3ncccc3c2)n1 [Compound 33, 2-fluoro-N-((4-(1-isopropyl-1H-pyrazol-3-yl)-5-(quinolin-6-yl)-1H-imidazol-2-yl)methyl)aniline hydrochloride] | – | < 200 | 9120 | –
CC(C)n1ccc(-c2nc(CNc3ccc(Cl)c(F)c3)[nH]c2-c2ccc3nccnc3c2)n1 [Compound 49] | – | < 1000 | – | –
N-((5-([1,2,4]triazolo[1,5-a]pyridin-6-yl)-4-(1-methyl-1H-pyrazol-3-yl)-1H-imidazol-2-yl)methyl)-4-chloroaniline hydrochloride [Compound 14] | – | – | – | > 10000
Cn1ccc(-c2nc(CNc3ccc(Cl)cc3)[nH]c2-c2ccc3ncnn3c2)n1 [Compound 12, N-((5-([1,2,4]triazolo[1,5-a]pyridin-6-yl)-4-(1-methyl-1H-pyrazol-3-yl)-1H-imidazol-2-yl)methyl)-4-chloroaniline hydrochloride] | – | – | > 10000 | –

The next lines start with results.

IC50 [2, 3] [nM] | IC50 [2, 4] [nM] | Compound | IC50 ([1]; Homo sapiens, HEK-293T) [nM] | IC50 [1] [nM]
7.55 | – | NC(=O)c1ccc(-c2nc(-c3ccn(C(F)F)n3)c(-c3ccc4ncsc4c3)[nH]2)cc1 [Compound 61] | 65.3 | –
– | < 1000 | Cn1ccc(-c2nc(CNc3cccc(C#N)c3)[nH]c2-c2ccc3ncnn3c2)n1 [Compound 16, 3-(((5-([1,2,4]triazolo[1,5-a]pyridin-6-yl)-4-(1-methyl-1H-pyrazol-3-yl)-1H-imidazol-2-yl)methyl)amino)benzonitrile hydrochloride] | 3570 | –
260 | – | CC(C)n1ccc(-c2nc(CNc3ccc(Cl)c(Cl)c3)[nH]c2-c2ccc3nccnc3c2)n1 [Compound 51] | – | –
31.2 | – | CC(C)n1ccc(-c2nc(CNc3cccc(Cl)c3)[nH]c2-c2ccc3nccnc3c2)n1 [Compound 54] | 211 | –
46.2 | – | CCNC(=O)c1ccc(-c2nc(-c3ccn(C)n3)c(-c3ccc4ncsc4c3)[nH]2)cc1 [Compound 65] | 654 | –
5.6 | – | Fc1cccc(NCc2nc(-c3ccn(C(F)F)n3)c(-c3ccc4nccnc4c3)[nH]2)c1 [Compound 46] | 11.6 | –
5.6 | – | Cn1ccc(-c2nc(-c3ccc(C(N)=O)cc3)[nH]c2-c2ccc3ncsc3c2)n1 [Compound 37] | 53.2 | –
43.6 | – | Cn1ccc(-c2nc[nH]c2-c2ccc3nccnc3c2)n1 [Compound 56] | 1050 | –
264 | – | CC(C)n1ccc(-c2nc(CNc3ccccc3)[nH]c2-c2ccc3ncnn3c2)n1 [Compound 10, N-((5-([1,2,4]triazolo[1,5-a]pyridin-6-yl)-4-(1-isopropyl-1H-pyrazol-3-yl)-1H-imidazol-2-yl)methyl)aniline hydrochloride] | 2660 | –
– | < 100 | CC(C)n1ccc(-c2nc(CNc3cccc(F)c3)[nH]c2-c2ccc3ncnn3c2)n1 [Compound 20, N-((5-([1,2,4]triazolo[1,5-a]pyridin-6-yl)-4-(1-isopropyl-1H-pyrazol-3-yl)-1H-imidazol-2-yl)methyl)-3-fluoroaniline hydrochloride] | 1270 | –
6.66 | – | Cc1nc(-c2ccn(C)n2)c(-c2ccc3ncsc3c2)[nH]1 [Compound 44, 6-(2-methyl-4-(1-methyl-1H-pyrazol-3-yl)-1H-imidazol-5-yl)benzo[d]thiazole] | 37.4 | –
1370 | – | Cn1ccc(-c2nc(CNc3ccccc3F)[nH]c2-c2ccc3ncnn3c2)n1 [Compound 2, N-((5-([1,2,4]triazolo[1,5-a]pyridin-6-yl)-4-(1-methyl-1H-pyrazol-3-yl)-1H-imidazol-2-yl)methyl)-2-fluoroaniline hydrochloride] | > 10000 | –
3 | – | Fc1cc(F)cc(NCc2nc(-c3ccn(C4CC4)n3)c(-c3ccc4ncnn4c3)[nH]2)c1 [Compound 69] | – | –
399 | – | Cc1cc(C(N)=O)cc(C)c1-c1nc(-c2ccn(C)n2)c(-c2ccc3ncsc3c2)[nH]1 [Compound 63] | 3030 | –
– | < 100 | CC(C)n1ccc(-c2nc(CNc3cccc(F)c3)[nH]c2-c2ccc3ncc(C#N)n3n2)n1 [Compound 27] | – | –
– | < 100 | CC(C)n1ccc(-c2nc(CNc3ccc(F)c(F)c3)[nH]c2-c2ccc3nccnc3c2)n1 [Compound 48] | – | –
– | < 1000 | Cn1ccc(-c2nc(-c3ccc(C#N)cc3)[nH]c2-c2ccc3nccnc3c2)n1 [Compound 42] | – | –
